Measured values as given in patent US10118916B2, “Modulators of cystic fibrosis transmembrane conductance regulator protein” (AbbVie S.à.r.l., priority 2016, dated 2018).

Molecular target: T1, F508delCFTR (Homo sapiens, UniProt P13569, DEL508-508)
T1 construct: expressed in transfected cells; host or cells: CFBE41o- (human lung derived epithelial cell line), doxycycline-inducible
Experiment: Cell Surface Expression-Horse Radish Peroxidase (CSE-HRP) assay
Type: cell-based
Conditions: CFBE41o-F508delCFTR-HRP cells; for EC50: F508delCFTR cell surface expression, luminescence, 18-24 hours at 33° C., highest concentration 20 μM; for Maximum % activity: maximum at any tested concentration, normalized to on-plate positive control (3 μM)
Source text: Cell Surface Expression-Horse Radish Peroxidase (CSE-HRP) Assay:
A cellular assay for measuring the F508delCFTR cell surface expression after correction with test compounds was developed in human lung derived epithelial cell line (CFBE41o-) (Veit G et al, (2012) Mol Biol Cell. 23(21): 4188-4202). This was achieved by expressing the F508delCFTR mutation along with a horseradish peroxidase (HRP) in the fourth exofacial loop and then measuring the HRP activity using luminescence readout from these cells, CFBE41o-F508delCFTR-HRP, that were incubated overnight with the test corrector compounds. Briefly, for this primary assay, the CFBE41o-F508delCFTR-HRP cells were plated in 384-well plates (Greiner Bio-one; Cat 781080) at 4,000 cells/well along with 0.5 μg/mL doxycycline to induce the F508delCFTR-HRP expression and further incubated at 37° C., 5% CO2 for 72 hours. The test compounds were then added at the required concentrations and further incubated for 18-24 hours at 33° C. The highest concentration tested was 20 μM with an 8-point concentration response curve using a 3-fold dilution. Three replicate plates were run to determine one EC50. All plates contained negative controls (dimethyl sulfoxide, DMSO) and positive controls (3 μM of 3-[(2R,4R)-4-({[1-(2,2-difluoro-1,3-benzodioxol-5-yl)cyclopropyl]carbonyl}amino)-7-methoxy-3,4-dihydro-2H-chromen-2-yl]benzoic acid) as well as on-plate concentration response of the positive control. Post incubation, the plates were washed 5× times with Dulbecco's phosphate buffered saline (DPBS), followed by the addition of the HRP substrate, luminol (50 μL), and measuring the HRP activity using luminescence readout on EnVision® Multilabel Plate Reader (Perkin Elmer; product number 2104-0010). The raw counts from the experiment are analyzed using Accelrys® Assay Explorer v3.3.
Z′ greater than 0.5 was used as passing quality control criteria for the plates.
The Z′ is defined as: 1−[3*SDPositive Control+3*SDNegative Control/Absolute(MeanPositive Control−MeanNegative Control)] wherein “SD” is standard deviation.
The % activity measured at each of the 8 test concentrations of the test compound was normalized to the on-plate positive control using the following formula: % activity=[(test compound response−DMSO response)/(positive control response−DMSO response)]*100
The maximum % activity achieved for the test compound at any tested concentration is presented in Table 1 along with the EC50 calculated using the following general sigmoidal curve with variable Hill slope equation (described as Model 42 in the Accelrys® Assay Explorer v3.3 software): y=(a−d)/(1+(x/c)^b)+d
General sigmoidal curve with concentration, response, top, bottom, EC50 and Hill slope.
This model describes a sigmoidal curve with an adjustable baseline, a. The equation can be used to fit curves where response is either increasing or decreasing with respect to the independent variable, “x”. • “x” is a concentration of drug under test. • “y” is the response. • “a” is the maximum response, and “d” is the minimum response • “c” is the inflection point (EC50) for the curve. That is, “y” is halfway between the lower and upper asymptotes when x=c. • “b” is the slope-factor or Hill coefficient. The sign of b is positive when the response increases with increasing dose and is negative when the response decreases with increasing dose (inhibition).

T1 sequence (P13569 with tags, fused parts or gaps DEL508-508): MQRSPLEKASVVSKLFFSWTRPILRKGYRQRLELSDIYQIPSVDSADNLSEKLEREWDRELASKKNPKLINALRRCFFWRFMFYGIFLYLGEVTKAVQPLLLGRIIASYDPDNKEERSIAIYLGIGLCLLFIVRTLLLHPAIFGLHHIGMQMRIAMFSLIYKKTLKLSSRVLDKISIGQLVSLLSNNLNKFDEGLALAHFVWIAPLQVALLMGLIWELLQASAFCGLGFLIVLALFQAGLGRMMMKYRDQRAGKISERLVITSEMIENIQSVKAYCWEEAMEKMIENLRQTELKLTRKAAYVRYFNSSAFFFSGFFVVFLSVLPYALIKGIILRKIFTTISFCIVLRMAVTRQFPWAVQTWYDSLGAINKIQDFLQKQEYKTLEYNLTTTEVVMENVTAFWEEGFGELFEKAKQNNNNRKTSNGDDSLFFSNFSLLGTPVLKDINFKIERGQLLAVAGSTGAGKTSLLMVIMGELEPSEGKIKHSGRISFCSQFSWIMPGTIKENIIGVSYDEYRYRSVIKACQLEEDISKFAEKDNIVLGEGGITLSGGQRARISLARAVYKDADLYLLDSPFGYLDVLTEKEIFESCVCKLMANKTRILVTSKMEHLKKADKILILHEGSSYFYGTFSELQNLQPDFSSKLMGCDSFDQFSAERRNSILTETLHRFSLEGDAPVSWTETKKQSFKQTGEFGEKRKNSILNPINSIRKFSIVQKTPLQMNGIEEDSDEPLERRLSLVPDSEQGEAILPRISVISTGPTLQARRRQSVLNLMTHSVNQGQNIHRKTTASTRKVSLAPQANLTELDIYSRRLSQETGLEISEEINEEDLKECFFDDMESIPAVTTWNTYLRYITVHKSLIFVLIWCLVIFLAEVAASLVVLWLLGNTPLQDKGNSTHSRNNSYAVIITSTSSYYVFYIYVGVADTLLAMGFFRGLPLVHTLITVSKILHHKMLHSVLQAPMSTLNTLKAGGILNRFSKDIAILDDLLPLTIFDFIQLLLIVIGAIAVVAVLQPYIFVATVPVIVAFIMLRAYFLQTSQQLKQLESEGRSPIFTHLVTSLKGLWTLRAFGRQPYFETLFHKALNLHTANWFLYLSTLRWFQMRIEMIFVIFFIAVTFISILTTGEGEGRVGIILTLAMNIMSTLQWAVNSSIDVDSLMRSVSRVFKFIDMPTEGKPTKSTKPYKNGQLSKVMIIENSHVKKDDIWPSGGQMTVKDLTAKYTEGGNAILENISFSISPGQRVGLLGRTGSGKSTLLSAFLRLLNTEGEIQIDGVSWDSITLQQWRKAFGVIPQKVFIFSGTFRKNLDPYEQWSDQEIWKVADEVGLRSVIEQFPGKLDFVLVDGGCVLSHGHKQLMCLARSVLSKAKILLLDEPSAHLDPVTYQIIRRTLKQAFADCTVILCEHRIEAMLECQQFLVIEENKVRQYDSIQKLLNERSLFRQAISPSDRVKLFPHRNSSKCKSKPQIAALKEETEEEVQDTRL

Row | Compound | EC50 | Maximum % activity
1 | 3-[(2R,4R)-4-{[(2R)-6-chloro-2-methyl-3,4-dihydro-2H-1-benzopyran-2-carbonyl]amino}-7-methoxy-3,4-dihydro-2H-1-benzopyran-2-yl]benzoic acid [Example 65] | 2.14 µM | 27.0%
2 | 3-{(2R,4R)-4-[2-(2H-1,3-benzodioxol-5-yl)-2-methylpropanamido]-7-methoxy-3,4-dihydro-2H-1-benzopyran-2-yl}benzoic acid [Example 38] | 0.16 µM | 34.4%
3 | 4-[(2R,4R)-4-(2-ethyl-2-phenylbutanamido)-7-methoxy-3,4-dihydro-2H-1-benzopyran-2-yl]benzoic acid [Example 79] | > 20 µM | −0.3%
4 | COc1ccc2c(c1)O[C@@H](c1ccc(C(=O)O)cc1)C[C@H]2NC(=O)C1(c2ccccc2)CC1(F)F (mixture of isomers) [Example 105, 4-{(2R,4R)-4-[(2,2-difluoro-1-phenylcyclopropane-1-carbonyl)amino]-7-methoxy-3,4-dihydro-2H-1-benzopyran-2-yl}benzoic acid] | 1.1 µM | 32.0%
5 | COC(=O)c1cccc([C@H]2C[C@@H](NC(=O)C3(C)CCc4cc(C)ccc43)c3ccc(OC)cc3O2)c1 (mixture of isomers) [Example 123, methyl 3-{(2R,4R)-4-[(1,5-dimethyl-2,3-dihydro-1H-indene-1-carbonyl)amino]-7-methoxy-3,4-dihydro-2H-1-benzopyran-2-yl}benzoate] | 0.45 µM | 80.8%
6 | COc1ccc2c(c1)O[C@@H](c1ccc(C(=O)O)cc1)C[C@H]2NC(=O)[C@@]1(C)CCc2cc(C)ccc21 (single isomer, unassigned) [Example 9] | 0.18 µM | 95.5%
7 | COC(=O)[C@H]1CC[C@@H]([C@H]2C[C@@H](NC(=O)C3(c4ccc5c(c4)OC(F)(F)O5)CC3)c3ccc(OC(F)F)cc3O2)CC1 (single isomer, unassigned) [Example 14D] | 0.63 µM | 121.5%
8 | COC(=O)[C@H]1CC[C@H]([C@H]2C[C@@H](NC(=O)C3(c4ccc5c(c4)OC(F)(F)O5)CC3)c3ccc(OC(F)F)cc3O2)CC1 (single isomer, unassigned) [Example 14E] | 0.2 µM | 125.0%
9 | COc1ccc2c(c1)O[C@@H](c1cccc(C(=O)O)c1)C[C@H]2NC(=O)[C@]1(C)CCc2cc(C)ccc21 (single isomer, unassigned) [Example 125] | 0.44 µM | 70.7%
10 | COc1ccc2c(c1)O[C@@H](c1ccc(C(=O)O)cc1)C[C@H]2NC(=O)[C@]1(C)CCc2cc(C)ccc21 (single isomer, unassigned) [Example 126] | 0.65 µM | 72.1%
11 | COc1ccc2c(c1)O[C@@H](c1ccc(C(=O)O)cc1)C[C@H]2NC(=O)C(C)(C)c1ccc2c(c1)OC(F)(F)O2 [Example 1, 4-{(2R,4R)-4-[2-(2,2-difluoro-2H-1,3-benzodioxol-5-yl)-2-methylpropanamido]-7-methoxy-3,4-dihydro-2H-1-benzopyran-2-yl}benzoic acid] | 0.55 µM | 110.0%
12 | COc1ccc2c(c1)O[C@@H](c1ccc(C(=O)O)cc1)C[C@H]2NC(=O)C1(c2ccc(Cl)c(Cl)c2)CC1 [Example 2, 4-[(2R,4R)-4-{[1-(3,4-dichlorophenyl)cyclopropane-1-carbonyl]amino}-7-methoxy-3,4-dihydro-2H-1-benzopyran-2-yl]benzoic acid] | 0.15 µM | 95.0%
13 | COc1ccc2c(c1)O[C@@H](c1ccc(C(=O)O)cc1)C[C@H]2NC(=O)C1(c2ccc(OC(F)(F)F)cc2)CC1 [Example 3, 4-[(2R,4R)-7-methoxy-4-({1-[4-(trifluoromethoxy)phenyl]cyclopropane-1-carbonyl}amino)-3,4-dihydro-2H-1-benzopyran-2-yl]benzoic acid] | 1.94 µM | 106.0%
14 | COc1ccc2c(c1)O[C@@H](c1ccc(C(=O)O)cc1)C[C@H]2NC(=O)C1(c2ccc(Br)cc2)CC1 [Example 4, 4-[(2R,4R)-4-{[1-(4-bromophenyl)cyclopropane-1-carbonyl]amino}-7-methoxy-3,4-dihydro-2H-1-benzopyran-2-yl]benzoic acid] | 0.26 µM | 94.2%
15 | COc1ccc2c(c1)O[C@@H](c1ccc(C(=O)O)cc1)C[C@H]2NC(=O)C1(c2ccc(C(F)(F)F)cc2)CC1 [Example 5, 4-[(2R,4R)-7-methoxy-4-({1-[4-(trifluoromethyl)phenyl]cyclopropane-1-carbonyl}amino)-3,4-dihydro-2H-1-benzopyran-2-yl]benzoic acid] | 0.21 µM | 120.0%
16 | COc1ccc2c(c1)O[C@@H](c1ccc(C(=O)O)cc1)C[C@H]2NC(=O)C1(c2ccc(C)cc2)CC1 [Example 6, 4-[(2R,4R)-7-methoxy-4-{[1-(4-methylphenyl)cyclopropane-1-carbonyl]amino}-3,4-dihydro-2H-1-benzopyran-2-yl]benzoic acid] | 0.09 µM | 95.9%
17 | COc1ccc2c(c1)O[C@@H](c1ccc(C(=O)O)cc1)C[C@H]2NC(=O)C1(C)CCc2cc(C)ccc21 (stereo partly drawn) [Example 7, 4-{(2R,4R)-4-[(1,5-dimethyl-2,3-dihydro-1H-indene-1-carbonyl)amino]-7-methoxy-3,4-dihydro-2H-1-benzopyran-2-yl}benzoic acid] | 0.16 µM | 90.1%
18 | CCOC(=O)[C@H]1CC[C@H]([C@H]2C[C@@H](NC(=O)C3(c4ccc5c(c4)OC(F)(F)O5)CC3)c3ccc(OC)cc3O2)CC1 [Example 10, ethyl trans-4-[(2R,4R)-4-{[1-(2,2-difluoro-2H-1,3-benzodioxol-5-yl)cyclopropane-1-carbonyl]amino}-7-methoxy-3,4-dihydro-2H-1-benzopyran-2-yl]cyclohexane-1-carboxylate] | 0.29 µM | 119.0%
19 | CCOC(=O)[C@H]1CC[C@H]([C@H]2C[C@@H](NC(=O)C3(c4ccc5c(c4)OC(F)(F)O5)CC3)c3ccc(OC(F)(F)F)cc3O2)CC1 [Example 12, ethyl trans-4-[(2R,4R)-4-{[1-(2,2-difluoro-2H-1,3-benzodioxol-5-yl)cyclopropane-1-carbonyl]amino}-7-(trifluoromethoxy)-3,4-dihydro-2H-1-benzopyran-2-yl]cyclohexane-1-carboxylate] | 0.07 µM | 135.0%
20 | COc1ccc2c(c1)OC(c1ccc(OC)c(OC)c1)CC2NC(=O)C1(c2ccccc2)CC(F)(F)C1 (stereo not shown) [Example 16, N-[2-(3,4-dimethoxyphenyl)-7-methoxy-3,4-dihydro-2H-1-benzopyran-4-yl]-3,3-difluoro-1-phenylcyclobutane-1-carboxamide] | > 20 µM | 4.0%
21 | COc1ccc2c(c1)OC(c1ccc(OC)c(OC)c1)CC2NC(=O)C1(c2ccc(F)c(F)c2)CCC1 (stereo not shown) [Example 17, 1-(3,4-difluorophenyl)-N-[2-(3,4-dimethoxyphenyl)-7-methoxy-3,4-dihydro-2H-1-benzopyran-4-yl]cyclobutane-1-carboxamide] | 3.32 µM | 27.6%
22 | COc1ccc2c(c1)OC(c1ccc(OC)c(OC)c1)CC2NC(=O)C(C)(C)Oc1ccc(Cl)cc1 (stereo not shown) [Example 18, 2-(4-chlorophenoxy)-N-[2-(3,4-dimethoxyphenyl)-7-methoxy-3,4-dihydro-2H-1-benzopyran-4-yl]-2-methylpropanamide] | > 20 µM | 5.5%
23 | COc1ccc2c(c1)OC(c1ccc(OC)c(OC)c1)CC2NC(=O)C1(c2cccc(F)c2)CC1 (stereo not shown) [Example 19, N-[2-(3,4-dimethoxyphenyl)-7-methoxy-3,4-dihydro-2H-1-benzopyran-4-yl]-1-(3-fluorophenyl)cyclopropane-1-carb oxamide] | 1.27 µM | 40.8%
